Experimental data reported in article PMC5218480 (PLoS ONE, 2017).

System: MV-4-11 cells
Assay: Gene expression microarray analysis (Affymetrix PrimeView) and GSEA
Assay type: cell-based, human
Parameters: RFU PODN (11730768_x_at) / Fold change /veh PODN (11730768_x_at) / RFU LINC00158 (11744669_a_at) / Fold change /veh LINC00158 (11744669_a_at) / RFU DUSP10 (11751237_a_at) / Fold change /veh DUSP10 (11751237_a_at) / RFU ID3 (11757404_x_at) / Fold change /veh ID3 (11757404_x_at) / RFU PLEKHG5 (11737974_s_at) / Fold change /veh PLEKHG5 (11737974_s_at) / RFU LRRC4B (11730491_at) / Fold change /veh LRRC4B (11730491_at) / RFU GIMAP4 (11747438_a_at) / Fold change /veh GIMAP4 (11747438_a_at) / RFU KRT8 (11758183_x_at) / Fold change /veh KRT8 (11758183_x_at) / RFU CNN1 (11734310_a_at) / Fold change /veh CNN1 (11734310_a_at) / RFU VPS37D (11726825_at) / Fold change /veh VPS37D (11726825_at) / RFU C10orf10 (11716522_x_at) / Fold change /veh C10orf10 (11716522_x_at) / RFU KIR2DL2 /// KIR2DL4 /// KIR2DL5A /// KIR2DL5B /// KIR2DS1 /// KIR2DS2 /// KIR2DS3 /// KIR2DS4 /// KIR3DL3 /// KIR3DL3 /// KIR3DS1 (11738374_at) / Fold change /veh KIR2DL2 /// KIR2DL4 /// KIR2DL5A /// KIR2DL5B /// KIR2DS1 /// KIR2DS2 /// KIR2DS3 /// KIR2DS4 /// KIR3DL3 /// KIR3DL3 /// KIR3DS1 (11738374_at) / RFU C1QL1 (11718748_at) / Fold change /veh C1QL1 (11718748_at) / RFU TMPRSS4 (11747572_a_at) / Fold change /veh TMPRSS4 (11747572_a_at) / RFU HAMP (11756126_x_at) / Fold change /veh HAMP (11756126_x_at) / RFU RNFT2 (11725882_a_at) / Fold change /veh RNFT2 (11725882_a_at) / RFU NR4A2 (11747474_a_at) / Fold change /veh NR4A2 (11747474_a_at) / RFU ABCC12 (11746883_a_at) / Fold change /veh ABCC12 (11746883_a_at) / RFU TMEM136 (11760407_x_at) / Fold change /veh TMEM136 (11760407_x_at) / RFU CLDN22 /// WWC2 (11732394_at) / Fold change /veh CLDN22 /// WWC2 (11732394_at) / RFU HLA-DPB1 (11760878_x_at) / Fold change /veh HLA-DPB1 (11760878_x_at) / RFU SPINT1 (11716480_a_at) / Fold change /veh SPINT1 (11716480_a_at) / RFU GAP43 (11754022_s_at) / Fold change /veh GAP43 (11754022_s_at) / RFU A4GNT (11735810_at) / Fold change /veh A4GNT (11735810_at) / RFU PRB3 (11715151_x_at) / Fold change /veh PRB3 (11715151_x_at) / RFU TUBB4B (11761932_at) / Fold change /veh TUBB4B (11761932_at) / RFU CAPN14 (11732068_a_at) / Fold change /veh CAPN14 (11732068_a_at) / RFU TMCC2 (11721928_a_at) / Fold change /veh TMCC2 (11721928_a_at) / RFU IRGQ (11745062_a_at) / Fold change /veh IRGQ (11745062_a_at) / RFU FAM174B (11720279_a_at) / Fold change /veh FAM174B (11720279_a_at) / RFU TMPRSS4 (11748680_a_at) / Fold change /veh TMPRSS4 (11748680_a_at) / RFU FAM212B (11763350_a_at) / Fold change /veh FAM212B (11763350_a_at) / RFU PLEKHG5 (11743358_a_at) / Fold change /veh PLEKHG5 (11743358_a_at) / RFU ZSCAN30 (11745921_a_at) / Fold change /veh ZSCAN30 (11745921_a_at) / RFU CMKLR1 (11741424_a_at) / Fold change /veh CMKLR1 (11741424_a_at) / RFU LOC101060620 /// MAPK8IP1 (11723275_at) / Fold change /veh LOC101060620 /// MAPK8IP1 (11723275_at) / RFU SPTSSB (11747773_x_at) / Fold change /veh SPTSSB (11747773_x_at) / RFU PRSS12 (11739890_at) / Fold change /veh PRSS12 (11739890_at) / RFU BIN1 (11741810_x_at) / Fold change /veh BIN1 (11741810_x_at) / RFU WNT11 (11732464_a_at) / Fold change /veh WNT11 (11732464_a_at) / RFU C10orf10 (11716521_a_at) / Fold change /veh C10orf10 (11716521_a_at) / RFU C5orf56 (11738089_at) / Fold change /veh C5orf56 (11738089_at) / RFU CYB561 (11721691_x_at) / Fold change /veh CYB561 (11721691_x_at) / RFU ANKRD19P (11752326_a_at) / Fold change /veh ANKRD19P (11752326_a_at) / RFU OR2T12 /// OR2T33 /// OR2T8 (11738714_s_at) / Fold change /veh OR2T12 /// OR2T33 /// OR2T8 (11738714_s_at) / RFU VCAN (11748164_a_at) / Fold change /veh VCAN (11748164_a_at) / RFU JSRP1 (11732532_at) / Fold change /veh JSRP1 (11732532_at) / RFU KRTAP10-11 (11738290_x_at) / Fold change /veh KRTAP10-11 (11738290_x_at) / RFU MYO3A (11730013_a_at) / Fold change /veh MYO3A (11730013_a_at) / RFU EBF3 (11725865_a_at) / Fold change /veh EBF3 (11725865_a_at) / RFU CAMK2N1 (11719241_x_at) / Fold change /veh CAMK2N1 (11719241_x_at) / RFU C5orf56 (11738088_a_at) / Fold change /veh C5orf56 (11738088_a_at) / RFU OLFML3 (11715873_a_at) / Fold change /veh OLFML3 (11715873_a_at) / RFU LOC100653217 /// NTM (11731650_a_at) / Fold change /veh LOC100653217 /// NTM (11731650_a_at) / RFU MAPK11 (11762145_a_at) / Fold change /veh MAPK11 (11762145_a_at) / RFU FIZ1 (11724087_x_at) / Fold change /veh FIZ1 (11724087_x_at) / RFU OASL (11726364_x_at) / Fold change /veh OASL (11726364_x_at) / RFU SOX15 (11748057_x_at) / Fold change /veh SOX15 (11748057_x_at) / RFU CD79A (11719716_a_at) / Fold change /veh CD79A (11719716_a_at) / RFU HIST1H1D (11736915_at) / Fold change /veh HIST1H1D (11736915_at) / RFU CASKIN2 (11723855_a_at) / Fold change /veh CASKIN2 (11723855_a_at) / RFU LOC730098 (11760151_x_at) / Fold change /veh LOC730098 (11760151_x_at) / RFU OR4N2 (11742367_at) / Fold change /veh OR4N2 (11742367_at) / RFU PRRT2 (11749266_a_at) / Fold change /veh PRRT2 (11749266_a_at) / RFU SNX32 (11753110_a_at) / Fold change /veh SNX32 (11753110_a_at) / RFU CDHR5 (11726645_a_at) / Fold change /veh CDHR5 (11726645_a_at) / RFU RCAN1 (11760418_a_at) / Fold change /veh RCAN1 (11760418_a_at) / RFU FAM167A (11723789_a_at) / Fold change /veh FAM167A (11723789_a_at) / RFU FAM26E (11764081_at) / Fold change /veh FAM26E (11764081_at) / RFU ISYNA1 (11749810_s_at) / Fold change /veh ISYNA1 (11749810_s_at) / RFU ACY1 (11761880_at) / Fold change /veh ACY1 (11761880_at) / RFU 11764098_at / Fold change /veh 11764098_at / RFU SAMD14 (11745864_x_at) / Fold change /veh SAMD14 (11745864_x_at) / RFU NPB (11741838_a_at) / Fold change /veh NPB (11741838_a_at) / RFU TMPRSS6 (11731388_a_at) / Fold change /veh TMPRSS6 (11731388_a_at) / RFU KRTAP10-2 (11738614_at) / Fold change /veh KRTAP10-2 (11738614_at) / RFU ARHGAP8 /// PRR5-ARHGAP8 (11727945_x_at) / Fold change /veh ARHGAP8 /// PRR5-ARHGAP8 (11727945_x_at) / RFU KRTAP5-7 /// NADSYN1 (11734609_at) / Fold change /veh KRTAP5-7 /// NADSYN1 (11734609_at) / RFU RASL12 (11751679_a_at) / Fold change /veh RASL12 (11751679_a_at) / RFU CDKN2B (11736163_a_at) / Fold change /veh CDKN2B (11736163_a_at) / RFU PRF1 (11729649_at) / Fold change /veh PRF1 (11729649_at) / RFU, ZNF638 /// ZNF638-IT1 / Fold change vs veh, ZNF638 /// ZNF638-IT1 / RFU, PANK3 / Fold change vs veh, PANK3 / RFU, SH3YL1 / Fold change vs veh, SH3YL1 / RFU, ZEB2 / Fold change vs veh, ZEB2 / RFU, NRIP1 / Fold change vs veh, NRIP1 / RFU, PTTG1IP / Fold change vs veh, PTTG1IP / RFU, CAPN2 / Fold change vs veh, CAPN2 / RFU, MED14 / Fold change vs veh, MED14 / RFU, SNORA58 / Fold change vs veh, SNORA58 / RFU, C1orf63 / Fold change vs veh, C1orf63 / RFU, LRRFIP1 / Fold change vs veh, LRRFIP1 / RFU, NDUFAF7 / Fold change vs veh, NDUFAF7 / RFU, SLC12A2 / Fold change vs veh, SLC12A2 / RFU, IBTK / Fold change vs veh, IBTK / RFU, ESF1 / Fold change vs veh, ESF1 / Fold change vs veh, TMEM50B / RFU, TAOK1 / Fold change vs veh, TAOK1 / RFU, ACBD3 / Fold change vs veh, ACBD3 / RFU, TMA16 / Fold change vs veh, TMA16 / RFU, RWDD3 / Fold change vs veh, RWDD3 / RFU, BCAT1 / Fold change vs veh, BCAT1 / RFU, EDEM3 / Fold change vs veh, EDEM3 / RFU, TMEM33 / Fold change vs veh, TMEM33 / RFU, WDR75 / Fold change vs veh, WDR75 / RFU, AHCTF1 / Fold change vs veh, AHCTF1 / RFU, TFRC / Fold change vs veh, TFRC / RFU, ZDHHC17 / Fold change vs veh, ZDHHC17 / RFU, NOM1 / Fold change vs veh, NOM1 / RFU, ARL8B / Fold change vs veh, ARL8B / RFU, ZBTB11 / Fold change vs veh, ZBTB11 / RFU, TAMM41 / Fold change vs veh, TAMM41 / RFU, KIAA1704 /// LOC100996395 / Fold change vs veh, KIAA1704 /// LOC100996395 / RFU, ING1 / Fold change vs veh, ING1 / RFU, TRMT61B / Fold change vs veh, TRMT61B / RFU, FUBP3 / Fold change vs veh, FUBP3 / RFU, TP53 / Fold change vs veh, TP53 / RFU, TNKS2 / Fold change vs veh, TNKS2 / RFU, ZFP14 / Fold change vs veh, ZFP14 / RFU, ACTR2 / Fold change vs veh, ACTR2 / RFU, PPP3R1 / Fold change vs veh, PPP3R1 / RFU, PIK3R1 / Fold change vs veh, PIK3R1 / RFU, HNRNPA1 / Fold change vs veh, HNRNPA1 / RFU, RNF170 / Fold change vs veh, RNF170 / RFU, ZNF28 / Fold change vs veh, ZNF28 / RFU, RNGTT / Fold change vs veh, RNGTT / RFU, OGT / Fold change vs veh, OGT / RFU, BRD1 / Fold change vs veh, BRD1 / RFU, MARS / Fold change vs veh, MARS / RFU, ZNF655 / Fold change vs veh, ZNF655 / RFU, FAHD1 / Fold change vs veh, FAHD1 / RFU, BDP1 / Fold change vs veh, BDP1 / RFU, LRRCC1 / Fold change vs veh, LRRCC1 / RFU, ARID1A / Fold change vs veh, ARID1A / RFU, ZNF146 / Fold change vs veh, ZNF146 / RFU, ZNF330 / Fold change vs veh, ZNF330 / RFU, GPN3 / Fold change vs veh, GPN3 / RFU, C9orf123 / Fold change vs veh, C9orf123 / RFU, N4BP2L2 / Fold change vs veh, N4BP2L2 / RFU, ARFIP1 / Fold change vs veh, ARFIP1 / RFU, FAM179B / Fold change vs veh, FAM179B / RFU, BCL10 / Fold change vs veh, BCL10 / RFU, UHRF1BP1L / Fold change vs veh, UHRF1BP1L / RFU, BET1 / Fold change vs veh, BET1 / RFU, CNOT2 / Fold change vs veh, CNOT2 / RFU, ZNF268 / Fold change vs veh, ZNF268 / Fold change vs veh, ZNF507 / RFU, DGCR2 / Fold change vs veh, DGCR2 / RFU, WDSUB1 / Fold change vs veh, WDSUB1 / Fold change vs veh, HSP90B1 /// MIR3652 / RFU, ADSS / Fold change vs veh, ADSS / RFU, GK / Fold change vs veh, GK / RFU, ZNF148 / Fold change vs veh, ZNF148 / RFU, TAF9 / Fold change vs veh, TAF9 / RFU, SLC1A5 / Fold change vs veh, SLC1A5 / RFU, SLMO2 / Fold change vs veh, SLMO2 / RFU, ABCC4 / Fold change vs veh, ABCC4 / RFU, LOC101060439 /// RAP1B / Fold change vs veh, LOC101060439 /// RAP1B / RFU, RFX7 / Fold change vs veh, RFX7 / RFU, GTPBP10 / Fold change vs veh, GTPBP10 / RFU, CNEP1R1 / Fold change vs veh, CNEP1R1 / RFU, BIVM-ERCC5 /// ERCC5 / Fold change vs veh, BIVM-ERCC5 /// ERCC5 / RFU, ILF3 / Fold change vs veh, ILF3 / RFU 11762660_at / Fold change /veh 11762660_at / RFU VCAN (11757783_s_at) / Fold change /veh VCAN (11757783_s_at) / RFU DDX43 (11728927_at) / Fold change /veh DDX43 (11728927_at) / RFU KRT8 (11758188_x_at) / Fold change /veh KRT8 (11758188_x_at) / RFU NKD1 (11759106_at) / Fold change /veh NKD1 (11759106_at) / RFU SRD5A1 (11742802_a_at) / Fold change /veh SRD5A1 (11742802_a_at) / RFU TPSAB1 /// TPSB2 (11721975_s_at) / Fold change /veh TPSAB1 /// TPSB2 (11721975_s_at) / RFU GSTM3 (11746129_a_at) / Fold change /veh GSTM3 (11746129_a_at) / RFU IL23R (11737362_x_at) / Fold change /veh IL23R (11737362_x_at) / RFU TMEM51 (11727254_a_at) / Fold change /veh TMEM51 (11727254_a_at) / RFU PIWIL2 (11732686_x_at) / Fold change /veh PIWIL2 (11732686_x_at) / RFU ORM1 (11744905_x_at) / Fold change /veh ORM1 (11744905_x_at) / RFU CCDC152 (11743942_at) / Fold change /veh CCDC152 (11743942_at) / RFU ECM1 (11717891_a_at) / Fold change /veh ECM1 (11717891_a_at) / RFU IL23R (11748794_a_at) / Fold change /veh IL23R (11748794_a_at) / RFU TNFAIP8L3 (11732012_x_at) / Fold change /veh TNFAIP8L3 (11732012_x_at) / RFU MBOAT4 (11741988_at) / Fold change /veh MBOAT4 (11741988_at) / RFU 11764193_at / Fold change /veh 11764193_at / RFU TMEM53 (11763286_at) / Fold change /veh TMEM53 (11763286_at) / RFU MAGEB2 (11727129_at) / Fold change /veh MAGEB2 (11727129_at) / RFU TMEM200A (11744735_a_at) / Fold change /veh TMEM200A (11744735_a_at) / RFU CCDC152 (11751479_a_at) / Fold change /veh CCDC152 (11751479_a_at) / RFU FAM211A (11726209_a_at) / Fold change /veh FAM211A (11726209_a_at) / RFU RGS16 (11746705_a_at) / Fold change /veh RGS16 (11746705_a_at) / RFU VCAN (11755009_s_at) / Fold change /veh VCAN (11755009_s_at) / RFU RHOB (11743442_s_at) / Fold change /veh RHOB (11743442_s_at) / RFU RGS16 (11720943_a_at) / Fold change /veh RGS16 (11720943_a_at) / RFU RGS16 (11720944_at) / Fold change /veh RGS16 (11720944_at) / RFU, VPS4B / Fold change vs veh, VPS4B / RFU, CREB1 / Fold change vs veh, CREB1 / RFU, DNAJC13 / Fold change vs veh, DNAJC13 / RFU, GNAQ / Fold change vs veh, GNAQ / RFU, CDK5R1 / Fold change vs veh, CDK5R1 / RFU, ZRANB3 / Fold change vs veh, ZRANB3 / RFU, CUL4A / Fold change vs veh, CUL4A / RFU, CCNY / Fold change vs veh, CCNY / RFU, UFL1 / Fold change vs veh, UFL1 / RFU, COG3 / Fold change vs veh, COG3 / RFU, DIAPH2 / Fold change vs veh, DIAPH2 / RFU, SKA2 / Fold change vs veh, SKA2 / RFU, AFF3 / Fold change vs veh, AFF3 / RFU, LMF1 / Fold change vs veh, LMF1 / RFU, IPO11 / Fold change vs veh, IPO11 / RFU, DFFB / Fold change vs veh, DFFB / RFU, FOXP1 / Fold change vs veh, FOXP1 / RFU, CARD8 / Fold change vs veh, CARD8 / RFU, STRN3 / Fold change vs veh, STRN3 / RFU, ADK / Fold change vs veh, ADK / RFU, RASSF2 / Fold change vs veh, RASSF2 / RFU, WIPF1 / Fold change vs veh, WIPF1 / RFU, LARP1B / Fold change vs veh, LARP1B / RFU, RASA1 / Fold change vs veh, RASA1 / RFU, RB1 / Fold change vs veh, RB1 / RFU, PPFIA1 / Fold change vs veh, PPFIA1 / RFU, MAT2A / Fold change vs veh, MAT2A / RFU, CCT5 / Fold change vs veh, CCT5 / RFU, WDR92 / Fold change vs veh, WDR92 / RFU, CUX1 / Fold change vs veh, CUX1 / RFU, TTC7A / Fold change vs veh, TTC7A / RFU, TMEM135 / Fold change vs veh, TMEM135 / RFU, DEPTOR / Fold change vs veh, DEPTOR / RFU, CPM / Fold change vs veh, CPM / RFU, DNAJB6 / Fold change vs veh, DNAJB6 / RFU, CACNA2D3 / Fold change vs veh, CACNA2D3 / RFU, DTX4 / Fold change vs veh, DTX4 / RFU, TFCP2 / Fold change vs veh, TFCP2 / RFU, GMCL1 /// GMCL1P1 / Fold change vs veh, GMCL1 /// GMCL1P1 / RFU, AEBP2 / Fold change vs veh, AEBP2 / RFU, SNHG1 /// SNORD22 /// SNORD25 /// SNORD26 /// SNORD27 /// SNORD28 /// SNORD29 /// SNORD31 / Fold change vs veh, SNHG1 /// SNORD22 /// SNORD25 /// SNORD26 /// SNORD27 /// SNORD28 /// SNORD29 /// SNORD31 / Fold change (Aza/veh), C12orf56 (ProbeSet 11735607_a_at) / Fold change (ACY-1035/veh), C12orf56 (ProbeSet 11735607_a_at) / Fold change (Aza/veh), FGFR1OP (ProbeSet 11751329_s_at) / Fold change (ACY-1035/veh), FGFR1OP (ProbeSet 11751329_s_at) / Fold change (Aza/veh), VPS36 (ProbeSet 11739960_a_at) / Fold change (ACY-1035/veh), VPS36 (ProbeSet 11739960_a_at) / RFU SYPL1 (11715823_x_at) / Fold change /veh SYPL1 (11715823_x_at) / RFU IGFBP7 (11715501_s_at) / Fold change /veh IGFBP7 (11715501_s_at) / RFU REEP3 (11722064_at) / Fold change /veh REEP3 (11722064_at) / RFU IGLL1 (11728026_x_at) / Fold change /veh IGLL1 (11728026_x_at): dose or concentration left out as unconfirmed
Details: MV-4-11 cells, 48 hours

Nc1ccc(-c2cccs2)cc1NC(=O)c1ccc2c(c1)cc(C1CC1)n2CCN1CCOCC1 [ACY-1035]
RFU C10orf10 (11716521_a_at): 34.07 RFU
